Test: Solubility of glycerol carbonate, glycerol and urea in selective solvents
Format: physicochemical
Conditions: at 25° C.

CC(C)C#N [Isobutyronitrile]
Solubility of Glycerol Carbonate (solute glycerol carbonate in the listed solvent): >500 mg/mL
Solubility of Glycerol (solute glycerol in the listed solvent): 10 mg/mL
Solubility of Urea (solute urea in the listed solvent): 60 mg/mL
